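Exposure lasted 48 hours, with cells grown in 96-well plates and compounds tested at five concentrations. The concentration for 50% growth inhibition is given as GI50. Definition used: TGI = concentration required for complete inhibition of growth.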
How the values were obtained:
Assay in all cases: inhibition of tumour cell growth, NCI panel, 48 h
786-0 renal = system: 786-0 renal
A498 renal = system: A498 renal
A549 NSCLC = system: A549 NSCLC
ACHN renal = system: ACHN renal
BT-549 breast = system: BT-549 breast
CAKI-1 renal = system: CAKI-1 renal
CCRF-CEM leukemia = system: CCRF-CEM leukemia
COLO 205 colon = system: COLO 205 colon
DU-145 prostate = system: DU-145 prostate
EKVX NSCLC = system: EKVX NSCLC
HCC-2998 colon = system: HCC-2998 colon
HCT-116 colon = system: HCT-116 colon
HCT-15 colon = system: HCT-15 colon
HL-60(TB) leukemia = system: HL-60(TB) leukemia
HOP-62 NSCLC = system: HOP-62 NSCLC
HOP-92 NSCLC = system: HOP-92 NSCLC
HS 578T breast = system: HS 578T breast
HT29 colon = system: HT29 colon
IGROV1 ovarian = system: IGROV1 ovarian
K-562 leukemia = system: K-562 leukemia
KM12 colon = system: KM12 colon
LOX IMVI melanoma = system: LOX IMVI melanoma
M14 melanoma = system: M14 melanoma
MALME-3M melanoma = system: MALME-3M melanoma
MCF7 breast = system: MCF7 breast
MDA-MB-231 breast = system: MDA-MB-231 breast
MDA-MB-435 = system: MDA-MB-435
MDA-MB-468 breast = system: MDA-MB-468 breast
MOLT-4 leukemia = system: MOLT-4 leukemia
NCI-H226 lung = system: NCI-H226 lung
NCI-H23 lung = system: NCI-H23 lung
NCI-H460 lung = system: NCI-H460 lung
NCI-H522 lung = system: NCI-H522 lung
OVCAR-3 ovarian = system: OVCAR-3 ovarian
OVCAR-4 ovarian = system: OVCAR-4 ovarian
OVCAR-5 ovarian = system: OVCAR-5 ovarian
OVCAR-8 ovarian = system: OVCAR-8 ovarian
PC-3 prostate = system: PC-3 prostate
RPMI-8226 leukemia = system: RPMI-8226 leukemia
RXF 393 renal = system: RXF 393 renal
SF-268 CNS = system: SF-268 CNS
SF-295 CNS = system: SF-295 CNS
SF-539 CNS = system: SF-539 CNS
SK-MEL-2 melanoma = system: SK-MEL-2 melanoma
SK-MEL-28 melanoma = system: SK-MEL-28 melanoma
SK-MEL-5 melanoma = system: SK-MEL-5 melanoma
SK-OV-3 ovarian = system: SK-OV-3 ovarian
SN12C renal = system: SN12C renal
SNB-19 CNS = system: SNB-19 CNS
SR leukemia = system: SR leukemia
SW-620 colon = system: SW-620 colon
T-47D breast = system: T-47D breast
TK-10 renal = system: TK-10 renal
U251 CNS = system: U251 CNS
UACC-257 melanoma = system: UACC-257 melanoma
UACC-62 melanoma = system: UACC-62 melanoma
UO-31 renal = system: UO-31 renal

CN(C)c1nc(NCCNS(=O)(=O)c2ccc(C(=O)/C=C/c3ccc(F)cc3)cc2)nc(N2CCOCC2)n1
GI50 (786-0 renal): 14.5 µM | TGI (786-0 renal): 28.7 µM | GI50 (A498 renal): 11.9 µM | TGI (A498 renal): 24.4 µM | GI50 (A549 NSCLC): 13.7 µM | TGI (A549 NSCLC): 27.9 µM | GI50 (ACHN renal): 13.1 µM | TGI (ACHN renal): 26 µM | GI50 (BT-549 breast): 15.1 µM | TGI (BT-549 breast): 29.2 µM | GI50 (CAKI-1 renal): 9.5 µM | TGI (CAKI-1 renal): 21.9 µM | GI50 (CCRF-CEM leukemia): 6.58 µM | TGI (CCRF-CEM leukemia): 39.1 µM | GI50 (COLO 205 colon): 14.6 µM | TGI (COLO 205 colon): 30.2 µM | GI50 (DU-145 prostate): 14.4 µM | TGI (DU-145 prostate): 27.8 µM | GI50 (EKVX NSCLC): 14.4 µM | TGI (EKVX NSCLC): 27.8 µM | GI50 (HCC-2998 colon): 16 µM | TGI (HCC-2998 colon): 29.9 µM | GI50 (HCT-116 colon): 2.29 µM | TGI (HCT-116 colon): 5.25 µM | GI50 (HCT-15 colon): 2.15 µM | TGI (HCT-15 colon): 4.92 µM | GI50 (HL-60(TB) leukemia): 14.7 µM | TGI (HL-60(TB) leukemia): > 100 µM | GI50 (HOP-62 NSCLC): 16.1 µM | TGI (HOP-62 NSCLC): 31.5 µM | GI50 (HOP-92 NSCLC): 12.7 µM | TGI (HOP-92 NSCLC): 28.5 µM | GI50 (HS 578T breast): 14.6 µM | TGI (HS 578T breast): 54.6 µM | GI50 (HT29 colon): 2.85 µM | TGI (HT29 colon): 8.39 µM | GI50 (IGROV1 ovarian): 2.27 µM | TGI (IGROV1 ovarian): 6.18 µM | GI50 (K-562 leukemia): 3.7 µM | TGI (K-562 leukemia): > 100 µM | GI50 (KM12 colon): 13.4 µM | TGI (KM12 colon): 30.6 µM | GI50 (LOX IMVI melanoma): 1.63 µM | TGI (LOX IMVI melanoma): 3.17 µM | GI50 (M14 melanoma): 15 µM | TGI (M14 melanoma): 30.5 µM | GI50 (MALME-3M melanoma): 14.6 µM | TGI (MALME-3M melanoma): 28.2 µM | GI50 (MCF7 breast): 2.99 µM | TGI (MCF7 breast): 11.2 µM | GI50 (MDA-MB-231 breast): 12.3 µM | TGI (MDA-MB-231 breast): 25.3 µM | GI50 (MDA-MB-435): 11.6 µM | TGI (MDA-MB-435): 24.6 µM | GI50 (MDA-MB-468 breast): 8.08 µM | TGI (MDA-MB-468 breast): 22.6 µM | GI50 (MOLT-4 leukemia): 4.69 µM | TGI (MOLT-4 leukemia): > 100 µM | GI50 (NCI-H226 lung): 12.3 µM | TGI (NCI-H226 lung): 28.2 µM | GI50 (NCI-H23 lung): 14.6 µM | TGI (NCI-H23 lung): 28.1 µM | GI50 (NCI-H460 lung): 15.7 µM | TGI (NCI-H460 lung): 33 µM | GI50 (NCI-H522 lung): 13.3 µM | TGI (NCI-H522 lung): 26.6 µM | GI50 (OVCAR-3 ovarian): 14.6 µM | TGI (OVCAR-3 ovarian): 28.5 µM | GI50 (OVCAR-4 ovarian): 11.9 µM | TGI (OVCAR-4 ovarian): 24.7 µM | GI50 (OVCAR-5 ovarian): 13.6 µM | TGI (OVCAR-5 ovarian): 26.8 µM | GI50 (OVCAR-8 ovarian): 14.7 µM | TGI (OVCAR-8 ovarian): 28.2 µM | GI50 (PC-3 prostate): 11.2 µM | TGI (PC-3 prostate): 25.5 µM | GI50 (RPMI-8226 leukemia): 1.91 µM | TGI (RPMI-8226 leukemia): 5.07 µM | GI50 (RXF 393 renal): 8.82 µM | TGI (RXF 393 renal): 21.2 µM | GI50 (SF-268 CNS): 15 µM | TGI (SF-268 CNS): 37.5 µM | GI50 (SF-295 CNS): 11.3 µM | TGI (SF-295 CNS): 23.8 µM | GI50 (SF-539 CNS): 13.2 µM | TGI (SF-539 CNS): 25.9 µM | GI50 (SK-MEL-2 melanoma): 13.7 µM | TGI (SK-MEL-2 melanoma): 26.8 µM | GI50 (SK-MEL-28 melanoma): 14.9 µM | TGI (SK-MEL-28 melanoma): 28.2 µM | GI50 (SK-MEL-5 melanoma): 15.7 µM | TGI (SK-MEL-5 melanoma): 29.2 µM | GI50 (SK-OV-3 ovarian): 13.8 µM | TGI (SK-OV-3 ovarian): 27.6 µM | GI50 (SN12C renal): 12 µM | TGI (SN12C renal): 24.4 µM | GI50 (SNB-19 CNS): 13.4 µM | TGI (SNB-19 CNS): 26.5 µM | GI50 (SR leukemia): 3.45 µM | TGI (SR leukemia): > 100 µM | GI50 (SW-620 colon): 3.39 µM | TGI (SW-620 colon): 12.3 µM | GI50 (T-47D breast): 11.9 µM | TGI (T-47D breast): 33.5 µM | GI50 (TK-10 renal): 15.3 µM | TGI (TK-10 renal): 28.7 µM | GI50 (U251 CNS): 4.74 µM | TGI (U251 CNS): 16.7 µM | GI50 (UACC-257 melanoma): 15.5 µM | TGI (UACC-257 melanoma): 29.2 µM | GI50 (UACC-62 melanoma): 10.8 µM | TGI (UACC-62 melanoma): 23 µM | GI50 (UO-31 renal): 11 µM | TGI (UO-31 renal): 23 µM

— PubChem BioAssay (NCI)
